ChEMBL document CHEMBL4368940, “Development of a novel NURR1/NOT agonist from hit to lead and candidate for the potential treatment of Parkinson's disease” (Bioorg Med Chem Lett, 2019)

What was measured:
[1] = molecular target: Nuclear receptor subfamily 4 group A member 2 (Homo sapiens, UniProt P43354); assay: Agonist activity at full-length Gal4-fused NOT (unknown origin) expressed in CHO cells by luciferase reporter gene assay; type: cell-based
[2] = molecular target: Nuclear receptor subfamily 4 group A member 2 (Mus musculus, UniProt Q06219); assay: (§1) Agonist activity at Nurr1 in mouse N2A cells harboring NBRE by luciferase reporter gene assay; type: cell-based
Nuclear receptor subfamily 4 group A member 2 (Mus musculus, UniProt Q06219), sequence (Q06219 whole entry): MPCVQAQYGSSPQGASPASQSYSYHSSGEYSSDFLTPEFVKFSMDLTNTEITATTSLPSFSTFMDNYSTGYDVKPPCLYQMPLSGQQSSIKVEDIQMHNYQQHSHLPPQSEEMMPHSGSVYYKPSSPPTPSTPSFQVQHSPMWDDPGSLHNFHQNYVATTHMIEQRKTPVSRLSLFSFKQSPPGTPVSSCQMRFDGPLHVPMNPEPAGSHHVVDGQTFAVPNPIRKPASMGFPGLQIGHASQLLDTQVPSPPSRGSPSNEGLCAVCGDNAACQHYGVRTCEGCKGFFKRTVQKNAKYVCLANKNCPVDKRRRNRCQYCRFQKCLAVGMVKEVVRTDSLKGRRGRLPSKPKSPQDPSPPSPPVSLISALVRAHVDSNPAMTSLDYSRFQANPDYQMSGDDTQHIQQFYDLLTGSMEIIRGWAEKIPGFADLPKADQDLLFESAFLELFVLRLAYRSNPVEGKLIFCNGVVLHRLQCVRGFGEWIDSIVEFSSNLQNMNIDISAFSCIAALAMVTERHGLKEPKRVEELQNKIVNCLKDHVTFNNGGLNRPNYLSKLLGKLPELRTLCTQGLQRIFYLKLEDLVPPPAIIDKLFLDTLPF

[3] = molecular target: Nuclear receptor subfamily 4 group A member 2 (Mus musculus) (UniProt Q06219); assay: as §1; type: cell-based
Nuclear receptor subfamily 4 group A member 2 (Mus musculus), sequence (Q06219 whole entry): as above

[4] = Drug level in mouse liver microsomes treated with N-phenyl-6-(pyridin-2-yl)imidazo[1,2-a]pyridine-2-carboxamide assessed as metabolite formation; type: ADME, Microsome
hERG = hERG (Homo sapiens, UniProt Q12809); assay: Inhibition of human ERG at 10 uM
hERG, sequence (Q12809 whole entry): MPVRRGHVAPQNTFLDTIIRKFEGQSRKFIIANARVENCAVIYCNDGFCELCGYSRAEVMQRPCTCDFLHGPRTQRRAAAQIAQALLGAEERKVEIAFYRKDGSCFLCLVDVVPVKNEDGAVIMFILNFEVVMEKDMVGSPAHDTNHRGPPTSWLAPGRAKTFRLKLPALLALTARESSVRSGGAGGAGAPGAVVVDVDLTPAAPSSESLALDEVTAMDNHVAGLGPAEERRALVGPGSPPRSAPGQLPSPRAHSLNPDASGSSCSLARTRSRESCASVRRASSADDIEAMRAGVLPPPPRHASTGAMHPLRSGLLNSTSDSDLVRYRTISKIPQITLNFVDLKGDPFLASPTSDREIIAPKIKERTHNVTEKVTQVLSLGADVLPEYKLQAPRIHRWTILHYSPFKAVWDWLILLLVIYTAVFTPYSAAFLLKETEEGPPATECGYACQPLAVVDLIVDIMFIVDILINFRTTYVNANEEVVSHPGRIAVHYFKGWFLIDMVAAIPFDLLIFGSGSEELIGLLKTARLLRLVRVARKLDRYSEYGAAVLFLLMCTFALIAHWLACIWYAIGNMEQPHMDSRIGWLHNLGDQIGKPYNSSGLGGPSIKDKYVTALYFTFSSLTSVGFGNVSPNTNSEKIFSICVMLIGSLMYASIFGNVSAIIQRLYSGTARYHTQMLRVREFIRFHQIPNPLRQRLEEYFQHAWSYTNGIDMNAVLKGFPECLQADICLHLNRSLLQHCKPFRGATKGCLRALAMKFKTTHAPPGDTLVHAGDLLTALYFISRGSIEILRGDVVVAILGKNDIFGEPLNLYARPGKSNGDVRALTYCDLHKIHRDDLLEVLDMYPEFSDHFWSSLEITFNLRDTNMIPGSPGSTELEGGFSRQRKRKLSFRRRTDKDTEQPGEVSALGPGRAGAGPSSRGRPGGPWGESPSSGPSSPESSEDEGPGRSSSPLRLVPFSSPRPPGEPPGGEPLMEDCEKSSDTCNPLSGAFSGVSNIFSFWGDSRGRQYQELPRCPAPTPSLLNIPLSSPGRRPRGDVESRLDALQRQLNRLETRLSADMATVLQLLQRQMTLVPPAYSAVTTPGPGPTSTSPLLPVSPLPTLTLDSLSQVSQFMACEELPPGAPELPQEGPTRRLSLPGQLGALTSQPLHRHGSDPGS

[5] = Clearance in human hepatocytes assessed per million cells; type: ADME, cell-based, Hepatocyte
[6] = molecular target: Nuclear receptor subfamily 4 group A member 2 (Rattus norvegicus) (UniProt Q07917); assay: Agonist activity at Nurr1 in rat mesencephalic primary neurons assessed as increase in tyrosine hydroxylase expression at 3 uM
Nuclear receptor subfamily 4 group A member 2 (Rattus norvegicus), sequence (Q07917 whole entry): as the sequence (Q06219 whole entry) above, with S134G, P182R counted along it

[7] = Drug metabolism in mouse liver microsomes assessed as amide hydrolysis by measuring 6-(pyridin-2-yl)imidazo[1,2-a]pyridine-2-carboxylic acid formation; type: ADME, Microsome
[8] = Apparent permeability in human Caco2 cells; type: ADME, cell-based; conditions: caco-2
CYP450 = CYP450 (Homo sapiens, UniProt P04798+P05177+P05181+P08684+P10632+P10635+P11509+P11712+P13584+P20813+P20815+P20853+P24462+P24903+P33260+P33261+P51589+P78329+P98187+Q02928+Q08477+Q16678+Q16696+Q5TCH4+Q6VVX0+Q7Z449+Q8TAV3+Q96SQ9+Q9HB55); assay: Induction of CYP450 (unknown origin); type: ADME, protein assay
[9] = Genotoxicity in Salmonella typhimurium by Ames test; type: toxicity; conditions: salmonella enterica subsp. enterica serovar typhimurium
Cytochrome P450 2C9 = Cytochrome P450 2C9 (Homo sapiens, UniProt P11712); assay: Inhibition of CYP2C9 (unknown origin); type: ADME
Cytochrome P450 2C9, sequence (P11712 whole entry): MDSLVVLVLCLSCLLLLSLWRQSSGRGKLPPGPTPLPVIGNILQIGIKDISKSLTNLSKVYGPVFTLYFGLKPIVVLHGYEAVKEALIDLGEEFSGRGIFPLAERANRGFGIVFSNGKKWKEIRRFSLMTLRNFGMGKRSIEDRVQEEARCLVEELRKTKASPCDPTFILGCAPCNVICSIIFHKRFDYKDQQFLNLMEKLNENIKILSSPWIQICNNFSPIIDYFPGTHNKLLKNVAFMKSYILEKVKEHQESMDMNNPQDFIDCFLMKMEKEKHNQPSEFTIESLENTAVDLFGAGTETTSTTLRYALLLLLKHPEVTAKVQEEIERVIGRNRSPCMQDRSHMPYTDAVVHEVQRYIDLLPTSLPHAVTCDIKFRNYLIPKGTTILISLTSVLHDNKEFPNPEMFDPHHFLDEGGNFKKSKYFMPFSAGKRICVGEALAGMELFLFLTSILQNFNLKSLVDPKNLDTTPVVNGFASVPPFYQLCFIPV

[10] = Drug metabolism in mouse liver microsomes assessed as amide hydrolysis by measuring aniline formation; type: ADME, Microsome
Cytochrome P450 3A4 = Cytochrome P450 3A4 (Homo sapiens, UniProt P08684); assay: Inhibition of CYP3A4 (unknown origin); type: ADME
Cytochrome P450 3A4, sequence (P08684 whole entry): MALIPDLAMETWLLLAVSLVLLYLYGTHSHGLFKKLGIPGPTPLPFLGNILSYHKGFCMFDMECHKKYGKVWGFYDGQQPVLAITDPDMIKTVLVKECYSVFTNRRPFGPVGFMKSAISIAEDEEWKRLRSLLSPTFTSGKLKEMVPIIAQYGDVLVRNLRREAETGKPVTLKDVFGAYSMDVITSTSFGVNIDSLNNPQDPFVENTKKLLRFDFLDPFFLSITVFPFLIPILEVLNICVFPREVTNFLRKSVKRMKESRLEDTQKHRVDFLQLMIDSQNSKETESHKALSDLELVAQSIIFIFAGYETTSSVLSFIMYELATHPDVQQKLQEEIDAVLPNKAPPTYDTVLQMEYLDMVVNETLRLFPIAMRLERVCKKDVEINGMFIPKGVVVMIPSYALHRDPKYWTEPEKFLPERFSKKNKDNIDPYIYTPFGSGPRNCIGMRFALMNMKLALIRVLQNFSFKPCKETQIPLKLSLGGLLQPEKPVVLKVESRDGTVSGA

[11] = molecular target: Voltage-gated inwardly rectifying potassium channel KCNH2 (Homo sapiens, UniProt Q12809); assay: Activation of human ERG
Voltage-gated inwardly rectifying potassium channel KCNH2, sequence (Q12809 whole entry): as the sequence (Q12809 whole entry) above

[12] = Drug metabolism in human liver microsomes; type: ADME, Microsome; conditions: read-out: Drug metabolism
Cytochrome P450 2D6 = Cytochrome P450 2D6 (Homo sapiens, UniProt P10635); assay: Inhibition of CYP2D6 (unknown origin); type: ADME
Cytochrome P450 2D6, sequence (P10635 whole entry): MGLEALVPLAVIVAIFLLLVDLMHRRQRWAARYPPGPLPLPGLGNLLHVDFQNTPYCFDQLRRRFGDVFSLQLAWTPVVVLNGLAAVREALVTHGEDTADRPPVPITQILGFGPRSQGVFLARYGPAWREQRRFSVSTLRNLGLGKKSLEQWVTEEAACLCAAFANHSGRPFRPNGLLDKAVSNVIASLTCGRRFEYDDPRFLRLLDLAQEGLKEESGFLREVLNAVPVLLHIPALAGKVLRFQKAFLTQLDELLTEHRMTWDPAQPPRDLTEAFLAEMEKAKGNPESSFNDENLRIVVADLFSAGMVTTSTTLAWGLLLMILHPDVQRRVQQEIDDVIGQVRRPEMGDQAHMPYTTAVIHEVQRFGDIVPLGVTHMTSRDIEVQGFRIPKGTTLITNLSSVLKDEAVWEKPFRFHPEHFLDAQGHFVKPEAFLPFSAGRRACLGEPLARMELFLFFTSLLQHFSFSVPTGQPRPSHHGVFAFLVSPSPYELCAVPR

[13] = Stability in human plasma; type: ADME, cell-free
[14] = Solubility of the compound by HPLC analysis; type: physicochemical
[15] = Drug metabolism in mouse liver microsomes; type: ADME, Microsome; conditions: read-out: Drug metabolism
[16] = Stability in mouse plasma; type: ADME, cell-free
[17] = Lipophilicity, log D of the compound; type: physicochemical; conditions: octanol/water
[18] = Dissociation constant, pKa of the compound; type: physicochemical

Nuclear receptor subfamily 4 group A member 2 (Homo sapiens, UniProt P43354), sequence (P43354 whole entry, the tested form may be a part): as the sequence (Q06219 whole entry) above, with S131T, S134G, D354E counted along it

| Compound | EC50 ([1]; read-out: EC50) [nM] | Emax [3] [%] | other results |
| --- | --- | --- | --- |
| O=C(Nc1ccsc1)c1cn2cc(-c3ccccn3)ccc2n1 | > 1000 | 85 | EC50 [2]: 1 nM |
| O=C(Nc1cccc(F)c1F)c1cn2cc(-c3ccccn3)ccc2n1 | > 1000 | 64 |  |
| OC1(c2cccc(-c3ccc4nc(-c5ccc(Cl)cc5)cn4c3)c2)CCOCC1 | > 1000 |  |  |
| OCc1cccc(-c2ccc3nc(-c4ccc(Cl)cc4)cn3n2)c1 |  |  | EC50 ([1]; cho): Not Active |
| O=C(Nc1ccccn1)c1cn2cc(-c3ccccn3)ccc2n1 | > 1000 | 87 | EC50 [2]: 2 nM |
| CN(C)Cc1cccc(-c2ccc3nc(-c4ccc(Cl)cc4)cn3c2)c1 | > 3000 |  |  |
| NC(=O)c1cccc(-c2ccc3nc(-c4ccc(Cl)cc4)cn3c2)c1 |  |  | Emax [1]: 210% |
| CNCc1cccc(-c2ccc3nc(-c4ccc(Cl)cc4)cn3c2)c1 | > 3000 |  |  |
| OCc1cccc(-c2ccc3nc(-c4ccc(Cl)cc4)nn3n2)c1 |  |  | EC50 ([1]; cho): Not Active |
| O=C(Nc1cccc(F)n1)c1cn2cc(-c3ccccn3)ccc2n1 | 25 | 86 | Emax [1]: 138%; EC50 [2]: 0.6 nM |
| O=C(Nc1cnoc1)c1cn2cc(-c3ccccn3)ccc2n1 | > 1000 | 85 | EC50 [2]: 55 nM |
| CNC(=O)c1cccc(-c2ccc3nc(-c4ccc(Cl)cc4)cn3c2)c1 |  |  | Emax [1]: 226% |
| Cc1c(CO)cccc1-c1ccc2nc(-c3ccc(Cl)cc3)cn2c1 | > 1000 |  |  |
| OCc1cccc(-c2ccc3cc(-c4ccc(Cl)cc4)cn3c2)c1 |  |  | EC50 ([1]; cho): Not Active |
| CC(O)c1cccc(-c2ccc3nc(-c4ccc(Cl)cc4)cn3c2)c1 (racemic) | 99 |  |  |
| Clc1ccc(-c2cn3cc(-c4cccc(CN5CCOCC5)c4)ccc3n2)cc1 | > 3000 |  |  |
| N#Cc1ccccc1NC(=O)c1cn2cc(-c3ccccn3)ccc2n1 | > 1000 | 52 | EC50 [2]: 292 nM |
| Cc1cccc(-c2ccc3nc(-c4ccc(Cl)cc4)cn3c2)c1 | > 3000 |  |  |
| CC(O)c1cccc(-c2ccc3nc(-c4ccc(Cl)cc4)cn3c2)c1 (single isomer, unassigned; (-)) | 219 |  |  |
| O=C(Nc1cc[nH]n1)c1cn2cc(-c3ccccn3)ccc2n1 | > 1000 | 61 |  |
| CCC(C)C(O)c1cccc(-c2ccc3nc(-c4ccc(Cl)cc4)cn3c2)c1 (stereo not given) | > 3000 |  |  |
| O=C(O)c1cn2cc(-c3ccccn3)ccc2n1 |  |  | Drug metabolism [4]: Metabolite_Detected |
| Cc1ccc(-c2ccc3nc(-c4ccc(Cl)cc4)cn3c2)cc1CO | > 1000 |  |  |
| CC(C)(O)c1c(F)ccc(-c2ccc3nc(-c4ccc(Cl)cc4)cn3c2)c1F | > 1000 |  | inhibition at 10 µM (hERG): 70% |
| Nc1ccccc1 [ANILINE] |  |  | Drug metabolism [4]: Metabolite_Detected |
| O=C(Nc1cc(F)ccc1F)c1cn2cc(-c3ccccn3)ccc2n1 | > 1000 | 68 | EC50 [2]: 1 nM |

| Compound | EC50 ([1]; read-out: EC50) [nM] | Emax [3] [%] | other results |
| --- | --- | --- | --- |
| OCc1c(F)ccc(-c2ccc3nc(-c4ccc(Cl)cc4)cn3c2)c1F | 38 |  | inhibition at 10 µM (hERG): 24%; CLH [5]: 0.1368 mL/h |
| O=C(Nc1cccc(F)c1)c1cn2cc(-c3ccccn3)ccc2n1 | > 1000 | 103 | EC50 [2]: 1 nM |
| N#Cc1cccc(-c2ccc3nc(-c4ccc(Cl)cc4)cn3c2)c1 | > 3000 |  |  |
| OCc1cccc(-c2cn3cc(-c4ccc(Cl)cc4)nc3cn2)c1 |  |  | EC50 ([1]; cho): Not Active |
| O=C(Nc1ccccc1)c1cn2cc(-c3ccccn3)ccc2n1 | 140 | 204 | Activity [6]: 174 to 216%; Drug metabolism [7]: Metabolite_Detected; permeability [8]: Permeable; Emax [1]: 203%; Emax (CYP450): < 20%; Activity [9]: Non-Toxic; IC50 (Cytochrome P450 2C9): 8600 nM; Drug metabolism [10]: Metabolite_Detected; CLH [5]: 0.128 mL/h; IC50 (Cytochrome P450 3A4): > 10000 nM; EC50 [11]: > 10000 nM; metabolised [12]: 20%; IC50 (Cytochrome P450 2D6): > 10000 nM; Stability [13]: Stable; solubility [14]: < 1 µM; metabolised [15]: 21%; Stability [16]: Unstable; EC50 [2]: 1 nM; logD [17]: 3.65; pKa [18]: 3.6 |
| COCc1cccc(-c2ccc3nc(-c4ccc(Cl)cc4)cn3c2)c1 | > 3000 |  |  |
| O=C(Nc1nccs1)c1cn2cc(-c3ccccn3)ccc2n1 | > 1000 | 72 |  |
| CCCCC(O)c1cccc(-c2ccc3nc(-c4ccc(Cl)cc4)cn3c2)c1 (stereo not given) | > 3000 |  |  |
| CCN(CC)C(=O)c1cccc(-c2ccc3nc(-c4ccc(Cl)cc4)cn3c2)c1 | > 3000 |  |  |
| CCC(O)c1cccc(-c2ccc3nc(-c4ccc(Cl)cc4)cn3c2)c1 (stereo not given) | > 1000 |  |  |
| O=C(Nc1cc(F)cc(F)c1)c1cn2cc(-c3ccccn3)ccc2n1 | > 1000 | 85 | EC50 [2]: 2.5 nM |
| CCCCCCC(O)c1cccc(-c2ccc3nc(-c4ccc(Cl)cc4)cn3c2)c1 (stereo not given) | > 3000 |  |  |
| OC(c1ccccc1)c1cccc(-c2ccc3nc(-c4ccc(Cl)cc4)cn3c2)c1 (stereo not given) | > 3000 |  |  |
| CC(O)c1cccc(-c2ccc3nc(-c4ccc(Cl)cc4)cn3c2)c1 (single isomer, unassigned; (+)) | 75 |  | CLH [5]: 0.45 mL/h |
| Clc1ccc(-c2cn3cc(-c4cccc(CN5CCCC5)c4)ccc3n2)cc1 | > 3000 |  |  |
| O=C(Nc1ccccc1Cl)c1cn2cc(-c3ccccn3)ccc2n1 | > 1000 | 68 | EC50 [2]: 26.5 nM |
| O=C(Nc1nncs1)c1cn2cc(-c3ccccn3)ccc2n1 | > 1000 | 70 | EC50 [2]: 67.6 nM |
| OC(c1cccc(-c2ccc3nc(-c4ccc(Cl)cc4)cn3c2)c1)C1CCCC1 (stereo not given) | > 3000 |  |  |
| O=C(Nc1ccccc1F)c1cn2cc(-c3ccccn3)ccc2n1 | > 1000 | 104 | EC50 [2]: 1 nM |
| O=C(Nc1ccon1)c1cn2cc(-c3ccccn3)ccc2n1 | > 1000 | 62 | EC50 [2]: 20 nM |
| OCc1cc(-c2ccc3nc(-c4ccc(Cl)cc4)cn3c2)ccc1F | > 1000 |  |  |
| CCCCCC(O)c1cccc(-c2ccc3nc(-c4ccc(Cl)cc4)cn3c2)c1 (stereo not given) | > 3000 |  |  |
| CC(O)(CO)c1cccc(-c2ccc3nc(-c4ccc(Cl)cc4)cn3c2)c1 (stereo not given) | > 1000 |  |  |
| OCc1cccc(-c2ccc3nc(-c4ccc(Cl)cc4)cn3c2)c1F | 14 |  | CLH [5]: 0.188 mL/h |
| OC1(c2cccc(-c3ccc4nc(-c5ccc(Cl)cc5)cn4c3)c2)COC1 | 323 |  |  |
